Experimental data reported in paper PMC11093748, “De novo identification of CD4^+ T cell epitopes” (Nature Methods, 2024).

Tests used:
GSE.20D11 TCR [1] = assay: HLA-DQ8 SABR-II (+ HLA-A2.1 SABR) library screen, enrichment score; type: cell-based, human
Source text: To test whether HLA-DQ8 SABR-II could be used for antigen discovery, we curated a list of insulin B, insulin C and HIP epitopes published by Wiles et al.[58] and cloned them into the DQ8 SABR-II backbone using the same pooled cloning strategy as the I-Ag7 SABR-II library (Supplementary Table 2). Furthermore, we combined SABR-I (the HLA-A*0201 library reported in our previous work[27]) and SABR-II libraries at a cellular level and screened against the GSE.20D11 TCR.
(§1) To generate the I-Ag7 restricted SABR library, we combined all Immune Epitope Database epitopes with a published immunopeptidome generated by Wan et al.[51]. Sequences were filtered remove all post-translational modifications except deamidation and HIPs and trimmed between 9–25 amino acid lengths. For the insulin C HIP and HLA-DQ8 library, non-contiguous epitopes from Wiles et al.[66] as well as all Immune Epitope Database epitopes were combined to generate the epitope list. Epitope sequences were back-translated using the backtranslate_fast.py script.
(§2) For SABR library screens, 3 × 10^6 NFAT–GFP Jurkat cells expressing the SABR library were labeled with CellTrace Violet (BioLegend) according to the manufacturer’s protocol before incubation with 3 × 10^6 Jurkat cells expressing the TCR of interest. These mixtures were incubated in a six-well plate for 16–20 h. Cells were stained with anti-CD69-APC-Cy7 where indicated (BioLegend) and the top 1–2% of GFP^+CD69^+ cells were sorted for genomic DNA extraction, indexing and sequencing (see below). Multiplexed assays were scaled on a per-TCR basis (for example 3 × 10^6 for each of three TCRs against 9 × 10^6 library cells). For single SABR assays, unless otherwise defined, 5 × 10^5 SABR expressing NFAT–GFP Jurkat cells (or 5KC cells) were labeled with CellTrace Violet (BioLegend) according to the manufacturer’s protocol before incubation with 5 × 10^5 TCR-expressing Jurkat cells (or 5KC cells) in a round-bottom 96-well plate for 16–20 h. Cells were stained with anti-CD69-APC-Cy7 when indicated and acquired on the Attune NxT flow cytometer (Thermo Fisher Scientific). All flow analysis was performed using FlowJo (BD). For Daudi cell co-culture, 1 × 10^6 Jurkat cells expressing the TCR of interest were incubated with 1 × 10^6 Daudi cells expressing a SABR of interest for 3 days. On day 3, cells were labeled with anti-RT1B-PE and anti-Fas-APC-Cy7 before being acquired on the Attune NxT flow cytometer.
Genomic DNA was extracted from sorted cells immediately after sorting, using the PureLink genomic DNA extraction kit (Life Technologies). The integrated SABR vectors were amplified with KOD polymerase (Millipore) and two rounds of amplification. In the first round, IDT-UD-SABR-C2-F and IDT-UD-SABR-C2-R primers were used to amplify the epitope. In the second round, UDI0001-R and UDI0001-F primers (representative of index 1) were used to add Illumina unique dual indexes (UDIs) to the amplicons. A different UDI was used for each sample. The reactions were pooled and purified with the NucleoSpin gel and PCR purification kit (Takara). The purified PCR product was checked before sequencing using 2% agarose gel and subjected to sequencing on a HiSeq4000 (Fulgent Genetics). Unaligned reads generated by the sequencer were stored in FASTQ files. FASTQ files were concatenated to generate one file for read1 and read2 each. The sequences were demultiplexed into individual indexes using demultiplex_dual.py. Epitopes were extracted and scored using epitope_extract_fastq_v1.1.py and merge_counts_split_v2.1.py. The ES was calculated using Microsoft Excel (Microsoft) workbooks.

TCR2 [2] = assay: I-Ag7 SABR-II HIP library screen, enrichment score; type: cell-based, mouse; conditions: TCR_Mean of 3 replicates minus PREDICTED_TCR (slope 0.896988, intercept 4.04602e-5)
Source text: (§3) Given the predominance of HIP-reactive TCRs, we hypothesized that there may be other TCRs that respond to HIPs that were not encoded in our initial library configuration. While the initial I-Ag7 SABR-II library consisted of a number of HIPs, HIP formation is thought to be more widespread in pancreatic β-cells[52],[70]. Therefore, we sought to construct a defined, HIP-focused library to probe whether there were any undiscovered HIP-reactive TCRs that could be recognized by the clonally expanded TCR in our dataset. To test this, we utilized a published proteomic dataset, which predicted that several proteins that were highly expressed in secretory granules of β-cells may contribute to HIP formation. Using their predictions, we built a theoretical HIP library, in which all possible ‘left’ halves of the insulin C chain derived from natural cleavage products were fused to ‘right’ halves derived from secretory granule proteins (Fig. 5a). This 2,561-epitope library (12–25 amino acids per epitope) consisted of only HIPs and a small number of positive control epitopes (Supplementary Table 5). We screened the top three clonally expanded TCRs (TCR1, TCR2 and TCR3) against this library, as these TCRs had not been de-convoluted using the original library. […] To confirm that the HIP itself was important for the cognate interaction, we cloned single 14-mer epitopes into SABR-IIs consisting of seven amino acids of the left portion of the HIP and seven amino acids of the right portion of the HIP. In this way, no nine amino acids from either peptide sequence alone could occupy the binding pocket of I-Ag7, ensuring that TCR reactivity spanned the HIP junction. […] Of note, in all the epitopes that were tested, the ‘left’ half derived from insulin C was conserved, whereas the ‘right’ halves were derived from several other proteins (Fig. 5d). […] Moreover, the promiscuous binding of TCR3 to HIPs corroborates evidence from other NOD mouse-derived TCRs reacting to multiple HIPs[72].
as §1
as §2, with “cytometer. […]” for “cytometer.”

TCR1 = assay: I-Ag7 SABR-II HIP library screen, enrichment score; type: cell-based, mouse; conditions: TCR_Mean of 3 replicates minus PREDICTED_TCR (slope 0.931777, intercept 2.67961e-5)
Source text: as §3, §1
as §2, with “cytometer. […]” for “cytometer.”

Jurkat cells, No TCR = assay: Single SABR-II co-incubation, background without TCR; type: cell-based, human; conditions: No TCR
How it was run: (§4)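 Single SABR-II constructs for putative cognate epitopes were expressed in CellTrace Violet-labelled NFAT–GFP Jurkat cells and co-incubated 1:1 (5 × 10^5 each) with TCR-expressing Jurkat cells for 16–20 h. GFP (with CD69 staining when indicated) was measured by flow cytometry. Wells with GFP above the no-TCR control were scored positive.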

TCR15 = assay: Single SABR-II co-incubation, NFAT-GFP Jurkat; type: cell-based, mouse; conditions: TCR 15, Fig 3B, 18 h
How it was run: as §4

TCR4 = assay: Single SABR-II co-incubation, NFAT-GFP Jurkat; type: cell-based, mouse; conditions: TCR 4
How it was run: as §4

TCR2 [3] = assay: Single SABR-II co-incubation, NFAT-GFP Jurkat; type: cell-based, mouse; conditions: TCR 2, Ext. Data Fig. 6C, 18-20 hr
How it was run: as §4

GSE.20D11 TCR [4] = assay: Single SABR-II co-incubation, NFAT-GFP Jurkat (HLA-DQ8); type: cell-based, human; conditions: GSE 20.D11 TCR
Source text: (§5) We have previously described SABRs, which are chimeric receptors containing an extracellular pMHC complex attached to an intracellular CD28-CD3ζ signaling domain. […] We sought to expand this platform to allow antigen discovery for MHC/HLA-II with seamless integration with class I alleles. Here, we created SABRs to present epitopes in MHC-II alleles, by covalently linking the epitope to the β-chain of MHC-II that is attached to the CD28-CD3ζ signaling domains downstream, along with a 2A peptide-linked MHC-II α-chain (Fig. 1a,b). To test whether SABR-IIs could present epitopes to TCRs and induce a signal, we expressed them using lentiviral vectors in NFAT–GFP Jurkat cells, which express green fluorescent protein (GFP) upon NFAT activation and translocation downstream of CD3ζ activation (a kind gift from Y. Chen and A. Weiss). We constructed murine SABR-IIs presenting epitopes in I-Ab, I-Ad and I-Ag7 (Ova, […][41]; ATEG, […][42]; and 2.5mimo, […][43], respectively). We co-incubated the SABR-II-expressing NFAT–GFP Jurkat cells with a separate population of Jurkat cells expressing either the BDC2.5 TCR (recognizes I-Ag7-2.5mimo), OT-II TCR (recognizes I-Ab-Ova), 5-4-E8 TCR (recognizes I-Ad-ATEG) or no TCR. […] The signal from the NFAT–GFP reporter offered minimal background in absence of a cognate TCR and correlated with surface SABR expression in the presence of a cognate TCR (Extended Data Fig. 1c–e). […] We confirmed the ability of the DQ8-InsB9:23 SABR-II to present the epitope to two previously described, T1D patient-derived TCRs GSE.6H9 and GSE.20D11 (ref. [46]).
as §2

GSE.6H9 TCR = assay: as above; type: cell-based, human; conditions: GSE 6.H9 TCR
Source text: as §5, §2

[5] = Ext. Data Fig. 6C, 18-20 hr, technical replicate 1
[6] = Ext. Data Fig. 6C, 18-20 hr, technical replicate 2
[7] = Fig 3B, 18 h, biological replicate 1
[8] = Fig 3B, 18 h, biological replicate 2
[9] = Fig 3B, 18 h, biological replicate 3

CDGERPTLAFLQDVM
Enrichment score (GSE.20D11 TCR [1]; ES = TCRObserved - TCRPredicted, TCRPredicted = LIBObserved x SLOPE + INTERCEPT, SLOPE 1.10224, INTERCEPT -1.65707e-5): -0.0002437
Enrichment score (GSE.20D11 TCR [1]; HLA-A2.1 and HLA-DQ8 SABR libraries screened simultaneously, reads mapped to DQ8 library, one biological experiment): -0.0002437

EVEDPQVAQLNAARDPNRESLD
Enrichment score (TCR2 [2]): 0.0005844

EVEDPQVEQLEGEDDPDRSMK
Enrichment score (TCR2 [2]): 0.000574

EVEDPQVEQLELSGKEVKGEEKGE
Enrichment score (TCR1): 0.0005139

EVEDPQVEWSRMDQLAKELT
Enrichment score (TCR1): 0.0005047

EVQEKPQELTDQDQSQEESQEG
Enrichment score (TCR1): 0.0005738

GAGDLQTLALEVEEEGSANRRAED
Enrichment score (TCR2 [2]): 0.0005985

GDLQTLALEVAQSGKEVKGEEKGE
Enrichment score (TCR1): 0.0005301

LQTLALNAARD
%GFP+CD69+ cells of SABR-NFAT-GFP-Jurkat cells (Jurkat cells, No TCR; [5]): 4.02%
%GFP+CD69+ cells of SABR-NFAT-GFP-Jurkat cells (Jurkat cells, No TCR; [6]): 3.97%
%GFP+CD69+ cells of SABR-NFAT-GFP-Jurkat cells (Jurkat cells, No TCR; [7]): 2.49%
%GFP+CD69+ cells of SABR-NFAT-GFP-Jurkat cells (Jurkat cells, No TCR; [8]): 7.87%
%GFP+CD69+ cells of SABR-NFAT-GFP-Jurkat cells (Jurkat cells, No TCR; [9]): 3.83%
%GFP+CD69+ cells of SABR-NFAT-GFP-Jurkat cells (TCR15; biological replicate 1): 43.67%
%GFP+CD69+ cells of SABR-NFAT-GFP-Jurkat cells (TCR15; biological replicate 2): 48.77%
%GFP+CD69+ cells of SABR-NFAT-GFP-Jurkat cells (TCR15; biological replicate 3): 51.63%
%GFP+CD69+ cells of SABR-NFAT-GFP-Jurkat cells (TCR4; [5]): 22.3%
%GFP+CD69+ cells of SABR-NFAT-GFP-Jurkat cells (TCR4; [6]): 22%
%GFP+CD69+ cells of SABR-NFAT-GFP-Jurkat cells (TCR4; [7]): 42.4%
%GFP+CD69+ cells of SABR-NFAT-GFP-Jurkat cells (TCR4; [8]): 41.7%
%GFP+CD69+ cells of SABR-NFAT-GFP-Jurkat cells (TCR4; [9]): 45.77%

PGDLQTLALEVALLDEGHYPVRES
Enrichment score (TCR2 [2]): 0.0008737

RQNGVLNSWTDQD
%GFP+CD69+ cells of SABR-NFAT-GFP-Jurkat cells (Jurkat cells, No TCR; [5]): 1.51%
%GFP+CD69+ cells of SABR-NFAT-GFP-Jurkat cells (Jurkat cells, No TCR; [6]): 1.42%
%GFP+CD69+ cells of SABR-NFAT-GFP-Jurkat cells (TCR2 [3]; technical replicate 1): 1.56%
%GFP+CD69+ cells of SABR-NFAT-GFP-Jurkat cells (TCR2 [3]; technical replicate 2): 1.62%

SHLVEALYLVCERG
Frequency of %GFP+CD69+ cells of SABR-NFAT-GFP-Jurkat cells (GSE.20D11 TCR [4]; biological replicate 1 of 3): 24.8%
Frequency of %GFP+CD69+ cells of SABR-NFAT-GFP-Jurkat cells (GSE.20D11 TCR [4]; biological replicate 2 of 3): 42.4%
Frequency of %GFP+CD69+ cells of SABR-NFAT-GFP-Jurkat cells (GSE.20D11 TCR [4]; biological replicate 3 of 3): 41.1%
Frequency of %GFP+CD69+ cells of SABR-NFAT-GFP-Jurkat cells (GSE.6H9 TCR; biological replicate 1 of 3): 16.8%
Frequency of %GFP+CD69+ cells of SABR-NFAT-GFP-Jurkat cells (GSE.6H9 TCR; biological replicate 2 of 3): 29.6%
Frequency of %GFP+CD69+ cells of SABR-NFAT-GFP-Jurkat cells (GSE.6H9 TCR; biological replicate 3 of 3): 27.9%

SPGDLQTLALEVPSPKESKEADVA
Enrichment score (TCR1): 0.0005282

VAQLELGGGPGASEASAKKKDESV
Enrichment score (TCR2 [2]): 0.0007771
